Results reported in patent publication US9944986B2, “Therapeutic targets for Alzheimer's disease” (The University of Birmingham, priority 2012, dated 2018).

What was measured:
brain [1] = assay: MSI imaging of brain sections (phosphatidylcholines, choline, creatine); assay type: in vivo; conditions: SD rats, rapamycin 0.2 mg/kg i.p., ketamine 30 mg/kg i.p.
Experimental: (§1) There were three animals (n=3) in each group. Animals were sacrificed and the brain removed and frozen for imaging studies.
All MSI imaging experiments were performed on a Bruker ultrafleXtreme TOF/TOF mass spectrometer. For matrix evaluation, 4 serial sections of thickness 10 μm from sham control brain S2 were acquired using a Leica CM 1850 Cryostat and subsequently thaw mounted onto an ITO coated glass slide. Each section in turn was coated with 15 mL of 20 mg mL^−1 of CHCA in CH3OH, 0.1% TFA) using an artist airbrush while the remaining 2 sections were covered. Data were collected over the mass range m/z 60-1400. MSI experiments of a single section from each group (Rapa, Ket and Control) were conducted. […]. Images were acquired with a pixel size of 100 μm×100 μm.

brain [2] = assay: T2 weighted MRI of brain after mTOR inhibition/activation; assay type: in vivo; conditions: SD rats; rapamycin 0.2 mg/kg i.p., ketamine 30 mg/kg i.p.; n=3
Source text: as §1

CNC1(c2ccccc2Cl)CCCCC1=O (stereo not shown) [ketamine]
phosphatidylcholine species in the brain (ion images) relative to control (brain [1]): clear differences induced by mTOR inhibition or activation | choline levels in the brain (brain [1]; vs control): measureable changes | creatine levels in the brain (brain [1]; vs control): measureable changes | T2 weighted MRI images versus control animals (brain [2]): clear differences in the T2 weighted MRI images
